In patent US7049133B2, “Regulation of gene expression through manipulation of mRNA splicing and its uses” (Yissum Research Development Company of the Hebrew …, priority 1998, dated 2006):
Read-outs that look alike come from different tables or passages of the source.

How the values were obtained:
[1] = system: splicing of TNF-β precursor transcripts; assay: RNase protection analysis of TNF-β precursor transcripts and spliced RNA in transfected BHK-21 cells; format: cell-based, hamster
Protocol: (§1) BHK-21 cells were grown in DMEM medium supplemented with 2 mM glutamine, 40 mM NaHCO3, 10 mM Hepes, pH 7.3, […] of penicillin and streptomycin, […] nystatin and 10% fetal calf serum. 2-AP (Sigma) was added at 10 mM unless otherwise indicated. To prepare a stock solution of 0.15 M, 2-AP was dissolved in phosphate-buffered saline by heating at 70° C. for 10 min.
(§2) In the experiments of FIGS. 2 and 3, monolayers of BHK-21 cells were seeded at a density of 1−2×10^6 cells/8-cm Petri dish and grown overnight; 4 h before cotransfection, culture medium was replaced. A mixture of […] of test DNA construct and 4 mg salmon sperm DNA carrier, and, when included, 2 mg pSV2CAT DNA [47], was permeated into cells by the calcium phosphate-DNA coprecipitation technique. After 12–18 h, culture medium was replaced with fresh medium prewarmed to 37° C. In the experiments of FIGS. 6 and 7, LipofectAmine (Life Technologies) was employed following instructions of the supplier, using 1 mg of each DNA for transfection.
(§3) For RNase protection analysis, DNA was subcloned in pBS (Stratagene) under the T3 or T7 promoter and transcribed using [a-^32P]UTP to generate labeled anti-sense RNA transcripts. A TNF-α RNA probe (map: FIG. 2A) was generated from a 821-bp EcoRI-Sau3AI fragment containing the 5′-flank, 151 -bp 5′-UTR, and first 6 codons. A second TNF-α RNA probe was generated from a 823-bp EcoRI-EcoRI 3′-UTR fragment from which a 5′-terminal fragment was removed by BstEII digestion, leaving 83 3′-terminal bp of the 3′-UTR and 250 bp beyond the 3′ cleavage site (map: FIG. 2A). A third TNF-α RNA probe (map: FIG. 2B) was generated from a 700-bp Sau3AI-Sau3AI fragment consisting of 10 bp of intron 2, exon 3, intron 3 and part of exon 4. A TNF-β probe was generated from a 637-bp Bsu36I-EcoRI DNA fragment, containing part of intron 3 and 571 bp of exon 4 (map: FIG. 3A). A second TNF-β RNA probe (map: FIG. 3B) was generated from a 324-bp EcoRI-Bsu36I DNA fragment, containing part of exon 1, exon 2, exon 3 and a portion of intron 3. A probe of 250-nt, generated from a HindIII-EcoRI fragment of the coding region of the CAT gene, was used to quantitate CAT mRNA. Intactness of RNA probes was assessed by polyacrylamide gel electrophoresis.
(§4) Total RNA was isolated using guanidinium isothiocyanate/CsC1. RNase protection analysis with RNases A and T1 was performed using genomic TNF-α and TNF-β riboprobes and CAT or actin probes as described. Protected RNA fragments were separated by electrophoresis in 5% polyacrylamide/8 M urea gels. Size markers in FIG. 3 were generated by MspI digestion of pGEM-3 DNA and filling in with [a-^32P]dCTP [12]. Size marker in FIG. 7 is a 100-bp DNA ladder (Fermentas) that was dephosphorylated and 5′ end-labeled with [γ-^32P]ATP.

BHK-21 cells = format: cell-based, baby hamster
Protocol: as §1, §2

[2] = system: splicing of TNF-α precursor transcripts; assay: RNase protection analysis of TNF-α precursor transcripts and spliced mRNA in transfected BHK-21 cells; format: cell-based, hamster
Protocol: as §1, §2, §3, §4

[3] = system: primary human lymphoid cells; conditions: cited from earlier work
CAT mRNA = assay: RNase protection analysis of CAT mRNA in transfected BHK-21 cells; format: cell-based
Protocol: as §1, §2
as §3, with “A second TNF-β RNA probe (map: FIG. 3B) was generated from a 324-bp EcoRI-Bsu36I DNA fragment, containing part of exon 1, exon 2, exon 3 and a portion of intron 3.” left out, “electrophoresis. […]” for “electrophoresis.”

PKR = target: T1, PKR (Oryctolagus cuniculus, UniProt A0A0U2KCE0); assay: Phosphorylation of PKR and eIF2α in ribosome fraction from rabbit reticulocyte lysate; format: biochemical
T1 construct: phosphorylation of the PKR (68 kDa) and eIF2α (38 kDa) bands in the ribosome fraction of rabbit reticulocyte lysate; from tissue; host or cells: ribosome fraction of rabbit reticulocyte lysate
T1 sequence (A0A0U2KCE0 1-547): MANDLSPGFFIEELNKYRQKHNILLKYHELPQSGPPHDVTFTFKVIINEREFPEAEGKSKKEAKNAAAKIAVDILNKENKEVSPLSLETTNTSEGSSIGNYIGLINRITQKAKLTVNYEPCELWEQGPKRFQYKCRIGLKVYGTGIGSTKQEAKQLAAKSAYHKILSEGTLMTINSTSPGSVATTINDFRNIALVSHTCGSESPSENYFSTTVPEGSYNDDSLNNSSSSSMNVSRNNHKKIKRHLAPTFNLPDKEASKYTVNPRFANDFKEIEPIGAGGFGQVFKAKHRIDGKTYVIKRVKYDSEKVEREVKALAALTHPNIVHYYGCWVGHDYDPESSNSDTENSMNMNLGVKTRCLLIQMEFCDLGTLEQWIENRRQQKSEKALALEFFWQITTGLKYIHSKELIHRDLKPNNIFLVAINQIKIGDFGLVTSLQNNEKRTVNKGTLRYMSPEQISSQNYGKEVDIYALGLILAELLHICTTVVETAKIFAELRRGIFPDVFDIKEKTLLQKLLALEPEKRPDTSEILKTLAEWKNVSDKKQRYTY
Excerpt: A 823-bp EcoRI-EcoRI TNF-α gene fragment comprised of 573 3′-terminal bp of the 3′-UTR, the polyadenylation site and downstream sequences from pTNF-α was inserted into pBS under the T7 promoter. To obtain 3′-UTR sense transcripts, the DNA was digested with PstI (EP), NcoI (EN), AflIII (EA), SspI (ES) or XmnI (EX) and then transcribed in vitro. A 616-bp NcoI-EcoRI TNF-α gene fragment comprised of 366 3′-terminal bp of the 3′-UTR, the polyadenylation site and downstream sequences from pTNF-α was inserted into pBS under the T7 promoter. To obtain 3′-UTR sense transcripts, the DNA was digested with AflIII (NA) or XmnI (NX) and then transcribed in vitro. A 572-bp EcoRI-PstI TNF-β gene fragment comprised of 389 3′-terminal bp of the 3′-UTR, the polyadenylation site and downstream sequences from pTNF-β was inserted into pBS under the T7 promoter. To obtain 3′-UTR sense transcript, the DNA was digested with PstI and then transcribed in vitro. EP RNA transcript was purified by agarose gel electrophoresis, followed by chromatography on CF-11 cellulose, washing with ethanol and eluting with water as described. Phosphorylation of PKR and eIF2α chain was assayed by incubating polyI:polyC or 3′-UTR transcript with the ribosome fraction from rabbit reticulocyte lysate in the presence of [γ-^32P]ATP for 20 min at 30° C. as described and subjecting the reaction mixture to electrophoresis in 10% polyacryamide gels containing sodium dodecyl sulfate.

[4] = pTNF-α(3′UTR-β), 2-AP from 16 h
[5] = pTNF-α, 2-AP 10 mM from 18 h after transfection
[6] = pTNF-β(3′UTR-α), 2-AP in presence of CHX
[7] = pTNF-β(3′UTR-α), intron 3/exon 4 probe, 2-AP from 16 h

## C[C@@H]1C[C@@H]([C@H](O)CC2CC(=O)NC(=O)C2)C(=O)[C@@H](C)C1 [CHX]
[1]; pTNF-β(3′UTR-α), CHX from 16 h
  Expression of both precursor transcripts and spliced RNA: enhanced expression

## Nc1ncc2[nH]cnc2n1 [2-AP, 2-Aminopurine]
BHK-21 cells; FIG. 2 experiments, 2-AP up to 10 mM
  Cell viability: remained constant
BHK-21 cells; FIG. 3 experiments, 2-AP and CHX present
  Cell viability: remained constant
[2]; pTNF-α(3′UTR-αEP), 2-AP added at 20 h
  mRNA: decline
[2]; pTNF-α(3′UTR-αEP), 2-AP added at 20 h, at 53 h
  Rise in precursor transcripts: up to 36 fold
[2]; [4]
  Expression of spliced mRNA (341-nt band): failed to decline
  Precursor transcripts (700 nt): nor did precursor transcripts (700 nt) increase
[2]; pTNF-α(Δ3′UTR), 2-AP 10 mM
  Accumulation of precursor transcripts: nor was there any enhanced accumulation
  Expression of mRNA: no longer inhibited
[2]; pTNF-α, 2-AP 2 mM from time of transfection
  Expression of TNF-α RNA transcripts: reduction
[2]; pTNF-α, 2-AP 6 mM from time of transfection
  Expression of TNF-α RNA transcripts: full inhibition
[2]; [5]
  Expression of spliced TNF-α mRNA (341-nt band): strongly inhibited
  TNF-α precursor transcripts (700-nt band): enhanced accumulation
[3]; lymphoid cells, increasing doses
  TNF-β precursor transcripts and spliced mRNA: coordinate decline
[3]; primary human lymphoid cells
  Expression of TNF-α mRNA: blocks expression
[1]
  Sensitivity of splicing of TNF-β precursor transcripts carrying an inverted TNF-α3′-UTR sequence, compared with TNF-β(3′UTR-α) transcripts: as sensitive
[1]; [6]
  Generation of spliced RNA: inhibited
  Precursor transcripts: increased
[1]; [7]
  Precursor transcripts: strong increase
  Spliced RNA: concomitant decline
[1]; pTNF-β(3′UTR-αEP), 2-AP added at 20 h
  Spliced mRNA versus precursor transcripts: pronounced shift from spliced mRNA to precursor transcripts
[1]; pTNF-β(Δ3′UTR)
  Expression of spliced TNF-β RNA: insensitive
[1]; pTNF-β, exon 1-3/intron 3 probe, 2-AP from 12 h
  Spliced RNA (214-nt band) and precursor transcripts: decrease
[1]; pTNF-β, intron 3/exon 4 probe, 2-AP from 12 h
  TNF-β precursor transcripts (637 nt) and mRNA (571 nt): precursors and mRNA both declined
CAT mRNA; p5′CAT(3′UTR-α)
  Expression of CAT mRNA carrying TNF-α3′-UTR portion: unaffected
CAT mRNA; p5′CAT, 10 mM 2-AP
  Expression of CAT mRNA: proceeded unabated
CAT mRNA; pSV2CAT cotransfected with pTNF-α, 2-AP 10 mM
  Expression of a cotransfected CAT gene: not affected
PKR; 1 mM 2-AP
  Sensitivity of PKR activation by 3′UTR-αEP RNA to 2-AP, compared with activation by dsRNA: less sensitive
PKR; 1 and 5 mM of 2-AP
  Phosphorylation of PKR and eIF2α driven by purified 3′UTR-αEP RNA: inhibited progressively

B1: 3′UTR-αEP RNA: T7 RNA transcript of the 104-bp EcoRI-PstI fragment of the human TNF-α3′-UTR (2-APRE, SEQ ID NO:1) (nucleic acid, listed as Homo sapiens)
chain: GAATTCAAACTGGGGCCTCCAGAACTCACTGGGGCCTACAGCTTTGATCCCTGACATCTGGAATCTGGAGACCAGGGAGCCTTTGGTTCTGGCCAGAATGCTGC
modifications: RNA, all phosphodiester, T or U not given here
PKR
  Induced phosphorylation of PKR and eIF2α, dependence on RNA concentration: at low but not high RNA concentrations
PKR; RNA 0.05 ng/ml, compared with dsRNA
  Activation of PKR, judged by phosphorylation of PKR (68 kDa) and eIF2α (38 kDa) bands: activated PKR even more strongly than dsRNA
PKR; each TNF RNA at 0.05 ng/ml
  Molar specific activity as inducer of PKR phosphorylation: highest molar specific activity
